# Experimental data published in patent US9822130B2, “Triazolo-pyrazinyl derivatives useful as soluble guanylate cyclase activators” (Merck Sharp & Dohme Corp., priority 2014, dated 2017).
# Molecular target: T1, sGC α1/β1 heterodimer stably expressed in CHO-K1 cell line (CHO-K1/sGC) (Homo sapiens, UniProt Q02108+Q02153)
# T1 construct: expressed in transfected cells
# T1 sequence (Q02108 1-690): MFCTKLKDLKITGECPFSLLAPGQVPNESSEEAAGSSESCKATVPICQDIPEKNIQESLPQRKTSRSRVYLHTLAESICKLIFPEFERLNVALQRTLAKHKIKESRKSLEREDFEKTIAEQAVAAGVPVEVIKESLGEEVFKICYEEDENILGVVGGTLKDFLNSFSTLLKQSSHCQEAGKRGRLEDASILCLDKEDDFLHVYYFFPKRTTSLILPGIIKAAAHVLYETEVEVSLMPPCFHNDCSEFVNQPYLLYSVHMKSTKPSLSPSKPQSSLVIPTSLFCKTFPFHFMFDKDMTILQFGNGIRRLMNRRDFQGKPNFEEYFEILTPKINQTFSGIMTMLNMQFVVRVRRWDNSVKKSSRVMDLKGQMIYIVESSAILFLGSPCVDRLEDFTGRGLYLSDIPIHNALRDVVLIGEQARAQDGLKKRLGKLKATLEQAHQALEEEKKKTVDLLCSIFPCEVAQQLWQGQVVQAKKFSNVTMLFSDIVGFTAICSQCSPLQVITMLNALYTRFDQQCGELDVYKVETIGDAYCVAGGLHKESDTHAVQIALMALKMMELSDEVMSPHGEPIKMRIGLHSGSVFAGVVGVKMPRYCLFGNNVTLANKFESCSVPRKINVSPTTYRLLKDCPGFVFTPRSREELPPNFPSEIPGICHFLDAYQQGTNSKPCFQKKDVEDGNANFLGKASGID
# T1 sequence (Q02153 1-619): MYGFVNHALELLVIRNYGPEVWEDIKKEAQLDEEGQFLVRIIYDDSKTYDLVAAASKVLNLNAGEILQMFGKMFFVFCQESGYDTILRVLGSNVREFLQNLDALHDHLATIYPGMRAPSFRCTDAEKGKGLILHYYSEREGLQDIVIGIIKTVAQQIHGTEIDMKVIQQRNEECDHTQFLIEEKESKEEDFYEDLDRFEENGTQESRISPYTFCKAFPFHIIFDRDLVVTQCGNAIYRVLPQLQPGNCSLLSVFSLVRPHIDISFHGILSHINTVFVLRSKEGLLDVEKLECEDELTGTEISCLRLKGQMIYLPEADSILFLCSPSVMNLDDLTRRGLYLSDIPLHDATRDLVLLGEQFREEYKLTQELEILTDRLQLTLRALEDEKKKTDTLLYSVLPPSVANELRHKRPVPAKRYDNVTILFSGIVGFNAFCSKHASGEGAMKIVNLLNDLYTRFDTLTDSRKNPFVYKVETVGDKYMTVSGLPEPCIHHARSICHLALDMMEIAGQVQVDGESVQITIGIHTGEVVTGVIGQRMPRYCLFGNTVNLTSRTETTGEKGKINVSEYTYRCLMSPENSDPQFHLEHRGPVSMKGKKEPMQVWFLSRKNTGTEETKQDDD
# Test: Cell-based sGC Functional Assay (CASA Assay), cGMP generation
# Conditions: CHO-K1/sGC cells, 1 hr at 37° C., cGMP by HTRF, 4P fit; presence or absence of 1 μM DETA-NO not given; read-out: IP (nM) (inflection point)
# Description: sGC is a heme-containing enzyme that converts GTP to secondary messenger cGMP. Increases in cGMP levels affect several physiological processes including vasorelaxation through multiple downstream pathways. […] Heme-dependent activators (HDAs) preferentially activate sGC containing a ferrous heme group. To determine the effect of sGC activators on enzyme activity, the CASA assay was developed to monitor the generation of cGMP in a cell line that stably expresses the heterodimeric sGC protein.
# A CHO-K1 cell line stably expressing the sGC α1/β1 heterodimer was generated using a standard transfection protocol. CHO-K1 cells were transfected with plasmids pIREShyghsGCα1 and pIRESneo-hsGCβ1 simultaneously using FUGENE reagent. Clones that stably express both subunits were selected with hygromycin and neomycin for ˜2 weeks. Clone #7 was chosen for the assay and was designated CHO-K1/sGC. CHO-K1/sGC cells were maintained in F-K12 medium containing 10% heat-inactivated Fetal Bovine Serum (FBS), 100 μg/mL penicillin/streptomycin, 0.5 mg/mL hygromycin and 0.25 mg/mL G418. The cells were then cryopreserved in LN2. On the day of the assay, cells thawed and resuspended in EBSS Assay Buffer (Sigma, E3024) supplemented with 5 mM MgCl2, 10 mM HEPES (4-(2-hydroxyethyl)piperazine-1-ethanesulfonic acid) and 0.05% BSA (bovine serum albumin) (EAB) and cell density was then adjusted to 4×10^5/mL with EAB, IBMX (3-isobutyl-1-methylxanthin, 0.5 mM) was added to inhibit degradation of cGMP. Compounds were diluted from DMSO stock solutions and added to the assay at a final DMSO concentration of 2.5%. Cells were incubated with compounds in the presence and absence of 1 μM of Diethylenetriamine/nitric oxide adduct (DETA-NO; Sigma, 17018) for 1 hr at 37° C. At the end of the incubation period, the reaction was terminated and the cells were lysed with the detection reagents from Cisbio Kits. The level of intracellular cGMP was determined using an HTRF-based assay kit (CisBio, 62GM2PEC), which detects the displacement of a fluorescence labeled cGMP from its specific antibody. The cGMP produced by test compounds was directly compared to the maximum cGMP production (this value was set to equal 100% activation.) of the published sGC-HDA Compound A:
# [drawing 300] (Example 1 in WO 2010/065275, published Jun. 10, 2010). The test compounds' activities were then expressed as a percentage of Compound A, the standard in every experiment. This percent activation was calculated either in the presence or absence of DETA-NO which was then plotted. IP and maximum fold induction was derived using ADA analysis software for 4P fit.
# The compounds in the Examples of the instant invention had inflection points (IP) less than or equal to 10 μM and more particularly less than or equal to about 1 μM.
row,EC50 [nM],SMILES
1,263,"CCCc1nc(-c2nc(N)c3c(n2)NC(=O)C3(c2ccc(F)cn2)C2CC2)cn2ncnc12 (centres unmarked) [Example 59A, 4-amino-5-cyclopropyl-5-(5-fluoropyridin-2-yl)-2-(8-propyl-[1,2,4]triazolo[1,5-a]pyrazin-6-yl)-5H-pyrrolo[2,3-d]pyrimidin-6(7H)-one]"
2,9.7,"CCCCc1nc(-c2nc(N)c3c(n2)NC(=O)C3(C)c2ccc(F)cn2)cn2ncnc12 (centres unmarked) [Example 61B, 4-amino-2-(8-butyl-[1,2,4]triazolo[1,5-d]pyrazin-6-yl)-5-(5-fluoropyridin-2-yl)-5-methyl-5H-pyrrolo[2,3-d]pyrimidin-6(7H)-one]"
3,219,"Cc1nnc(C2(C)C(=O)Nc3nc(-c4cn5ncnc5c(CCC(F)(F)C(F)(F)F)n4)nc(N)c32)o1 (single isomer, unassigned) [Example 97B, 4-Amino-5-methyl-5-(5-methyl-1,3,4-oxadiazol-2-yl)-2-(8-(3,3,4,4,4-pentafluorobutyl)-[1,2,4]triazolo[1,5-a]pyrazin-6-yl)-5H-pyrrolo[2,3-d]pyrimidin-6(7H)-one]"
4,214,"CC1(c2ccc(F)c(Cl)c2)C(=O)Nc2nc(-c3cn4ncnc4c(CCCC(F)(F)F)n3)nc(O)c21 (centres unmarked) [Example 147B, 5-(3-chloro-4-fluorophenyl)-4-hydroxy-5-methyl-2-(8-(4,4,4-trifluorobutyl)-[1,2,4]triazolo[1,5-a]pyrazin-6-yl)-5,7-dihydro-6H-pyrrolo[2,3-d]pyrimidin-6-one]"
5,133,"CC1(c2ccc(Cl)cc2)C(=O)Nc2nc(-c3cn4ncnc4c(CCC(F)(F)F)n3)nc(O)c21 (centres unmarked) [Example 152A, 5-(4-chlorophenyl)-4-hydroxy-5-methyl-2-(8-(3,3,3-trifluoropropyl)-[1,2,4]triazolo[1,5-a]pyrazin-6-yl)-5H-pyrrolo[2,3-d]pyrimidin-6(7H)-one]"
6,301,"CC1(c2ccccc2)C(=O)Nc2nc(-c3cn4ncnc4c(CCCC(F)(F)F)n3)nc(O)c21 (centres unmarked) [Example 143B, 4-hydroxy-5-methyl-5-phenyl-2-(8-(4,4,4-trifluorobutyl)-[1,2,4]triazolo[1,5-a]pyrazin-6-yl)-5H-pyrrolo[2,3-d]pyrimidin-6(7H)-one]"
7,26.7,"CCCCc1nc(-c2nc(N)c3c(n2)NC(=O)C3(c2nnc(C(F)(F)F)o2)C2CC2)cn2ncnc12 (centres unmarked) [Example 105A, 4-amino-2-(8-butyl-[1,2,4]triazolo[1,5-a]pyrazin-6-yl)-5-cyclopropyl-5-(5-(trifluoromethyl)-1,3,4-oxadiazol-2-yl)-5H-pyrrolo[2,3-d]pyrimidin-6(7H)-one]"
8,150,"CC1(c2cnc(C(F)(F)F)cn2)C(=O)Nc2nc(-c3cn4ncnc4c(CCCC(F)(F)F)n3)nc(N)c21 (centres unmarked) [Example 50B, 4-amino-5-methyl-2-(8-(4,4,4-trifluorobutyl)-[1,2,4]triazolo[1,5-a]pyrazin-6-yl)-5-(5-(trifluoromethyl)pyrazin-2-yl)-5H-pyrrolo[2,3-d]pyrimidin-6(7H)-one]"
9,212,"Nc1nc(-c2cn3ncnc3c(CCCC(F)(F)F)n2)nc2c1C(c1ccc(O)cn1)(C1CC1)C(=O)N2 (centres unmarked) [Example 112A, 4-amino-5-cyclopropyl-5-(5-hydroxypyridin-2-yl)-2-(8-(4,4,4-trifluorobutyl)-[1,2,4]triazolo[1,5-a]pyrazin-6-yl)-5H-pyrrolo[2,3-d]pyrimidin-6(7H)-one]"
10,20,"CC1(c2ccc(Cl)c(F)c2)C(=O)Nc2nc(-c3cn4ncnc4c(CCCC(F)(F)F)n3)nc(N)c21 (centres unmarked) [Example 28B, 4-amino-5-(4-chloro-3-fluorophenyl)-5-methyl-2-(8-(4,4,4-trifluorobutyl)-[1,2,4]triazolo[1,5-a]pyrazin-6-yl)-5H-pyrrolo[2,3-d]pyrimidin-6(7H)-one]"
11,488,"Nc1nc(-c2cn3ncnc3c(CCCC(F)(F)F)n2)nc2c1C(c1ncc(C(F)(F)F)cn1)(C1CC1)C(=O)N2 (single isomer, unassigned) [Example 180B, 4-amino-5-cyclopropyl-2-(8-(4,4,4-trifluorobutyl)-[1,2,4]triazolo[1,5-a]pyrazin-6-yl)-5-(5-(trifluoromethyl)pyrimidin-2-yl)-5,7-dihydro-6H-pyrrolo[2,3-d]pyrimidin-6-one]"
12,11.1,"CC1(c2ccccc2)C(=O)Nc2nc(-c3cn4ncnc4c(CCC(F)(F)C(F)(F)F)n3)nc(N)c21 (centres unmarked) [Example 12B, 4-amino-5-methyl-2-(8-(3,3,4,4,4-pentafluorobutyl)-[1,2,4]triazolo[1,5-a]pyrazin-6-yl)-5-phenyl-5H-pyrrolo[2,3-d]pyrimidin-6(7H)-one]"
13,857,"CC1(c2ccc(Cl)cn2)C(=O)Nc2nc(-c3cn4ncnc4c(CCCC(F)(F)F)n3)nc(O)c21 (centres unmarked) [Example 134A, 5-(5-chloropyridin-2-yl)-4-hydroxy-5-methyl-2-(8-(4,4,4-trifluorobutyl)-[1,2,4]triazolo[1,5-a]pyrazin-6-yl)-5H-pyrrolo[2,3-d]pyrimidin-6(7H)-one]"
14,176,"CC(C)n1cc(C2(C)C(=O)Nc3nc(-c4cn5ncnc5c(CCC(F)(F)C(F)(F)F)n4)nc(N)c32)nn1 (centres unmarked) [Example 20A, 4-amino-5-(1-isopropyl-1H-1,2,3-triazol-4-yl)-5-methyl-2-(8-(3,3,4,4,4-pentafluorobutyl)-[1,2,4]triazolo[1,5-a]pyrazin-6-yl)-5H-pyrrolo[2,3-d]pyrimidin-6(7H)-one]"
15,1450,"CCCc1nc(-c2nc(O)c3c(n2)NC(=O)C3(C)c2ccc(Cl)cc2)cn2nc(C)nc12 (centres unmarked) [Example 168A, 5-(4-chlorophenyl)-4-hydroxy-5-methyl-2-(2-methyl-8-propyl-[1,2,4]triazolo[1,5-a]pyrazin-6-yl)-5H-pyrrolo[2,3-d]pyrimidin-6(7H)-one]"
16,40.4,"CC1(c2ccc(Cl)cn2)C(=O)Nc2nc(-c3cn4ncnc4c(CCC(F)(F)C(F)(F)F)n3)nc(N)c21 (centres unmarked) [Example 3A, 4-amino-5-(5-chloropyridin-2-yl)-5-methyl-2-(8-(3,3,4,4,4-pentafluorobutyl)-[1,2,4]triazolo[1,5-a]pyrazin-6-yl)-5H-pyrrolo[2,3-d]pyrimidin-6(7H)-one]"

# Same assay, conditions: CHO-K1/sGC cells, 1 hr at 37° C., cGMP by HTRF; presence or absence of 1 μM DETA-NO not given; read-out: % Act. (percent activation relative to maximum cGMP production of Compound A = 100%)
row,Emax [%],SMILES
1,70,"CC1(c2ccc(Cl)cc2)C(=O)Nc2nc(-c3cn4ncnc4c(CCC(F)(F)F)n3)nc(O)c21 (centres unmarked) [Example 152A, 5-(4-chlorophenyl)-4-hydroxy-5-methyl-2-(8-(3,3,3-trifluoropropyl)-[1,2,4]triazolo[1,5-a]pyrazin-6-yl)-5H-pyrrolo[2,3-d]pyrimidin-6(7H)-one]"
